System: PMA-differentiated THP-1 cells
Test: IL-1β production in PMA-differentiated THP-1 cells stimulated with gramicidin (hTHP-1 assay containing 2% fetal bovine serum; Procedures 1 and 2)
Type: cell-based, human
Settings: Homo sapiens, THP-1, Table B2; 2% fetal bovine serum; class symbols; read-out: hTHP-1 IC50
Summary of the method: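 Human monocytic THP-1 cells, matured overnight with PMA at 20 ng/ml, are seeded in low-serum (2% FBS) RPMI. Test compounds, at final concentrations from 100 down to 0.0017 μM, precede gramicidin (5 μM, 2 h) by one hour. Released IL-1β is then determined by HTRF.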

First: Cc1c(C2CC2)nc2c(c1NC(=O)N=S(N)(=O)c1sc(C(C)(C)O)nc1CO)CCC2 (centres unmarked) [Compound 679, N′-((2-cyclopropyl-3-methyl-6,7-dihydro-5H-cyclopenta[b]pyridin-4-yl)carbamoyl)-4-(hydroxymethyl)-2-(2-hydroxypropan-2-yl)thiazole-5-sulfonimidamide]
Second: COCc1nc(C(C)(C)O)sc1S(N)(=O)=NC(=O)Nc1c2c(nc3c1CCC3)CCC2 (centres unmarked) [Compound 689, N′-((1,2,3,5,6,7-hexahydrodicyclopenta[b,e]pyridin-8-yl)carbamoyl)-2-(2-hydroxypropan-2-yl)-4-(methoxymethyl)thiazole-5-sulfonimidamide]
The IC50 of the first is higher: 5 to 30 µM for the first, 1 to 5 µM for the second. The second is the more potent here.

`CC(C)c1nc(CO)c(S(N)(=O)=NC(=O)Nc2c3c(nc4c2CCC4(C)C)CCC3)s1` (centres unmarked) [Compound 680, N′-((3,3-dimethyl-1,2,3,5,6,7-hexahydrodicyclopenta[b,e]pyridin-8-yl)carbamoyl)-4-(hydroxymethyl)-2-isopropylthiazole-5-sulfonimidamide] and `CC(C)n1cc(CO)c(S(N)(=O)=NC(=O)Nc2c3c(nc4c2CCC4(C)C)CCC3)n1` (centres unmarked) [Compound 682, N′-((3,3-dimethyl-1,2,3,5,6,7-hexahydrodicyclopenta [b,e]pyridin-8-yl)carbamoyl)-4-(hydroxymethyl)-1-isopropyl-1H-pyrazole-3-sulfonimidamide] fall in the same range of IC50: 1 to 5 µM for the first, 1 to 5 µM for the second.

First: Cc1c(C(C)C)nc2c(c1NC(=O)N=S(N)(=O)c1cc(C(C)(C)O)cs1)CCC2 (centres unmarked) [Compound 681, 4-(2-Hydroxypropan-2-yl)-N′-((2-isopropyl-3-methyl-6,7-dihydro-5H-cyclopenta[b]pyridin-4-yl)carbamoyl)thiophene-2-sulfonimidamide]
Second: Cc1c(C2(F)CC2)nc2c(c1NC(=O)N=S(N)(=O)c1cc(C(C)(C)O)cs1)CCC2 (centres unmarked) [Compound 722]
The IC50 of the first is lower: 0.04 to 0.2 µM for the first, 1 to 5 µM for the second.

First: CC(C)(O)c1cnc(S(N)(=O)=NC(=O)Nc2c3c(nc4c2CCC42CC2)CCC3)s1 (centres unmarked) [Compound 683, 5-(2-Hydroxypropan-2-yl)-N′-((1′,5′,6′,7′-tetrahydro-2′H-spiro[cyclopropane-1,3′-dicyclopenta[b,e]pyridin]-8′-yl)carbamoyl)thiazole-2-sulfonimidamide]
Second: CC(C)(O)c1cnc(S(N)(=O)=NC(=O)Nc2c3c(nc4c2CCC4(C)C)CCC3)s1 (centres unmarked) [Compound 686, N′-((3,3-dimethyl-1,2,3,5,6,7-hexahydrodicyclopenta[b,e]pyridin-8-yl)carbamoyl)-5-(2-hydroxypropan-2-yl)thiazole-2-sulfonimidamide]
The IC50 of the first is higher: 1 to 5 µM for the first, 0.2 to 1 µM for the second.

Compared with `CC(C)(O)c1cncc(S(N)(=O)=NC(=O)Nc2c3c(nc4c2CCC4(C)C)CCC3)c1` (centres unmarked) [Compound 684, N′-((3,3-dimethyl-1,2,3,5,6,7-hexahydrodicyclopenta[b,e]pyridin-8-yl)carbamoyl)-5-(2-hydroxypropan-2-yl)pyridine-3-sulfonimidamide], `CC(C)(O)c1cc(S(N)(=O)=NC(=O)Nc2c3c(nc4c2CCC4(C)C)CCC3)nn1-c1ccc(F)cc1` (centres unmarked) [Compound 704, N′-((3,3-dimethyl-1,2,3,5,6,7-hexahydrodicyclopenta[b,e]pyridin-8-yl)carbamoyl)-1-(4-fluorophenyl)-5-(2-hydroxypropan-2-yl)-1H-pyrazole-3-sulfonimidamide] is higher in IC50: 0.2 to 1 µM for the first, 1 to 5 µM for the second. The first is the more potent here.

First: NS(=O)(=NC(=O)Nc1c2c(nc3c1CCC3)CCC2)c1ccn(CC(F)(F)F)n1 (centres unmarked) [Compound 685, N′-((1,2,3,5,6,7-hexahydrodicyclopenta[b,e]pyridin-8-yl)carbamoyl)-1-(2,2,2-trifluoroethyl)-1H-pyrazole-3-sulfonimidamide]
Second: C[C@@H]1CCc2c1nc1c(c2NC(=O)N=S(N)(=O)c2ccn(C(C)(F)F)n2)CCC1 (some centres unmarked) [Compound 723c]
The IC50 of the first is higher: 1 to 5 µM for the first, 0.2 to 1 µM for the second. The second is the more potent here.

First: Cc1cn(C(C)C)nc1S(N)(=O)=NC(=O)Nc1c2c(nc3c1CCC3)CCC2 (centres unmarked) [Compound 687, N′-((1,2,3,5,6,7-hexahydrodicyclopenta[b,e]pyridin-8-yl)carbamoyl)-1-isopropyl-4-methyl-1H-pyrazole-3-sulfonimidamide]
Second: CC(C)n1cc(Cl)c(S(N)(=O)=NC(=O)Nc2c3c(nc4c2CCC4)CCC3)n1 (centres unmarked) [Compound 694, 4-Chloro-N′-((1,2,3,5,6,7-hexahydrodicyclopenta[b,e]pyridin-8-yl)carbamoyl)-1-isopropyl-1H-pyrazole-3-sulfonimidamide]
The IC50 of the first is higher: 5 to 30 µM for the first, 1 to 5 µM for the second.

`CC(C)(O)c1sc(S(N)(=O)=NC(=O)Nc2c3c(nc4c2CCC4)CCC3)cc1Cl` (centres unmarked) [Compound 688, 4-Chloro-N′-((1,2,3,5,6,7-hexahydrodicyclopenta[b, e]pyridin-8-yl)carbamoyl)-5-(2-hydroxypropan-2-yl)thiophene-2-sulfonimidamide] and `Cc1cc(S(N)(=O)=NC(=O)Nc2c3c(nc4c2CCC4)CCC3)sc1C(C)(C)O` (centres unmarked) [Compound 692, N′-((1,2,3,5,6,7-hexahydrodicyclopenta[b,e]pyridin-8-yl)carbamoyl)-5-(2-hydroxypropan-2-yl)-4-methylthiophene-2-sulfonimidamide] fall in the same range of IC50: 1 to 5 µM for the first, 1 to 5 µM for the second.

`CC(C)(O)c1cc(Br)c(S(N)(=O)=NC(=O)Nc2c3c(nc4c2CCC4)CCC3)s1` (centres unmarked) [Compound 690, 3-Bromo-N′-((1,2,3,5,6,7-hexahydrodicyclopenta[b,e]pyridin-8-yl)carbamoyl)-5-(2-hydroxypropan-2-yl)thiophene-2-sulfonimidamide] and `CC(C)(O)c1cc(Cl)c(S(N)(=O)=NC(=O)Nc2c3c(nc4c2CCC4)CCC3)s1` (centres unmarked) [Compound 691, 3-Chloro-N′-((1,2,3,5,6,7-hexahydrodicyclopenta[b, e]pyridin-8-yl)carbamoyl)-5-(2-hydroxypropan-2-yl)thiophene-2-sulfonimidamide] fall in the same range of IC50: 1 to 5 µM for the first, 1 to 5 µM for the second.

Compared with `COC(C)(C)c1ncc(S(N)(=O)=NC(=O)Nc2c3c(nc4c2CCC4)CCC3)s1` (centres unmarked) [Compound 693, N′-((1,2,3,5,6,7-hexahydrodicyclopenta[b,e]pyridin-8-yl)carbamoyl)-2-(2-methoxypropan-2-yl)thiazole-5-sulfonimidamide], `Cc1cc(C(C)(C)O)sc1S(N)(=O)=NC(=O)Nc1c2c(nc3c1CCC3)CCC2` (centres unmarked) [Compound 695, N-((1,2,3,5,6,7-hexahydrodicyclopenta[b,e]pyridin-8-yl)carbamoyl)-5-(2-hydroxypropan-2-yl)-3-methylthiophene-2-sulfonimidamide] is higher in IC50: 1 to 5 µM for the first, 5 to 30 µM for the second. The first is the more potent here.

First: CC(C)c1cc(C#N)nc(C(C)C)c1NC(=O)NS(=N)(=O)c1sc(C(C)(C)O)nc1CO (centres unmarked) [Compound 696, N-((6-cyano-2,4-diisopropylpyridin-3-yl)carbamoyl)-4-(hydroxymethyl)-2-(2-hydroxypropan-2-yl)thiazole-5-sulfonimidamide]
Second: CC(C)c1nc(C(F)(F)F)nc(C(C)C)c1NC(=O)N=S(N)(=O)c1sc(C(C)(C)O)nc1CO (centres unmarked) [Compound 713]
The IC50 of the first is higher: 5 to 30 µM for the first, 1 to 5 µM for the second.

First: CC(C)(O)c1ncc(S(N)(=O)=NC(=O)Nc2c3c(nc4c2CCC4CF)CCC3)s1 (centres unmarked) [Compound 702, N′-((3-(fluoromethyl)-1,2,3,5,6,7-hexahydrodicyclopenta[b,e]pyridin-8-yl)carbamoyl)-2-(2-hydroxypropan-2-yl)thiazole-5-sulfonimidamide]
Second: CC(C)(O)c1ncc(S(N)(=O)=NC(=O)Nc2c3c(nc4c2CCC4C(=O)O)CCC3)s1 (centres unmarked) [Compound 703, 8-(3-(Amino(2-(2-hydroxypropan-2-yl)thiazol-5-yl)(oxo)-λ^6-sulfanylidene)ureido)-1,2,3,5,6,7-hexahydrodicyclopenta[b,e] pyridine-3-carboxylic acid]
The IC50 of the first is lower: 1 to 5 µM for the first, 5 to 30 µM for the second.

First: C[C@](O)(CO)c1cc(F)c(S(N)(=O)=NC(=O)Nc2c3c(nc4c2CCC42CC2)CCC3)s1 (some centres unmarked) [Compound 716a]
Second: C[C@@](O)(CO)c1cc(F)c(S(N)(=O)=NC(=O)Nc2c3c(nc4c2CCC42CC2)CCC3)s1 (some centres unmarked) [Compound 716b]
The IC50 of the first is lower: 0.04 to 0.2 µM for the first, 0.2 to 1 µM for the second.

First: Cc1c(C(F)(F)F)nc2c(c1NC(=O)N=S(N)(=O)c1nn(C(F)F)cc1F)CCC2 (centres unmarked) [Compound 717]
Second: C[C@@H]1CCc2c1nc1c(c2NC(=O)N=S(N)(=O)c2nn(C(F)F)cc2F)CCC1 (some centres unmarked) [Compound 718a]
The IC50 of the first is higher: 0.2 to 1 µM for the first, 0.04 to 0.2 µM for the second. The second is the more potent here.

`NS(=O)(=NC(=O)Nc1c2c(nc3c1CCC31CC1)CCC2)c1nn(C(F)F)cc1F` (centres unmarked) [Compound 719] and `CCc1cc(F)c(S(N)(=O)=NC(=O)Nc2c3c(nc4c2CC[C@H]4C)CCC3)s1` (some centres unmarked) [Compound 720c] fall in the same range of IC50: 0.2 to 1 µM for the first, 0.2 to 1 µM for the second.

First: CCc1csc(S(N)(=O)=NC(=O)Nc2c3c(nc4c2CC[C@H]4C)CCC3)c1 (stereo partly drawn) [Compound 721c, 4-Ethyl-N′-(((R)-3-methyl-1,2,3,5,6,7-hexahydrodicyclopenta [b,e]pyridin-8-yl)carbamoyl)thiophene-2-sulfonimidamide]
Second: CCc1ccsc1S(N)(=O)=NC(=O)Nc1c2c(nc3c1CC[C@H]3C)CCC2 (some centres unmarked) [Compound 725a]
The IC50 of the first is lower: 0.04 to 0.2 µM for the first, 1 to 5 µM for the second. The first is the more potent here.

First: CC1(C)CCc2c1nc1c(c2NC(=O)N=S(N)(=O)c2cnc(C(C)(CO)CO)s2)CCC1 (centres unmarked) [Compound 724]
Second: CCn1ccc(S(N)(=O)=NC(=O)Nc2c3c(nc(C4CC4)c2C2CC2)CCC3)n1 (centres unmarked) [Compound 726]
The IC50 of the first is lower: 0.2 to 1 µM for the first, 1 to 5 µM for the second.

Same assay, conditions: Homo sapiens, THP-1, Table B2; 2% fetal bovine serum; numeric bounds; read-out: hTHP-1 IC50

`CCOC(=O)c1nc2c(c(NC(=O)N=S(N)(=O)c3cnc(C(C)(C)O)s3)c1C)CCC2` (centres unmarked) [Compound 706] and `Cc1c(C(=O)O)nc2c(c1NC(=O)N=S(N)(=O)c1cnc(C(C)(C)O)s1)CCC2` (centres unmarked) [Compound 712] cannot be ordered by IC50: greater than 30 µM for the first, greater than 30 µM for the second.

`Cc1c(C2(C)CC2)nc2c(c1NC(=O)N=S(N)(=O)c1cnc(C(C)(O)CO)s1)CCC2` (centres unmarked) [Compound 707] and `CC(C)(O)c1ncc(S(N)(=O)=NC(=O)Nc2c3c(nc4c2CCC4=O)CCC3)s1` (centres unmarked) [Compound 711] cannot be ordered by IC50: greater than 30 µM for the first, greater than 30 µM for the second.

`CC(C)(O)c1ncc(S(N)(=O)=NC(=O)Nc2cc(C(F)F)nc3c2CCC3)s1` (centres unmarked) [Compound 708] and `CC(C)(O)c1cnc(S(N)(=O)=NC(=O)Nc2c3c(nc4c2CCC4O)CCC3)s1` (centres unmarked) [Compound 710] cannot be ordered by IC50: greater than 30 µM for the first, greater than 30 µM for the second.

`CN(C)Cc1nc(C(C)(C)O)sc1[S@](N)(=O)=NC(=O)Nc1c2c(nc3c1CCC3(C)C)CCC2` [Compound 709] showed an IC50 greater than 30 µM.

— patent US20230031406A1, “COMPOUNDS AND COMPOSITIONS FOR TREATING CONDITIONS ASSOCIATED WITH NLRP ACTIVITY” (Novartis AG, priority 2018, published 2023)
